Test results reported in US20240226030A1, “COMPOSITIONS AND METHODS USING AT LEAST ONE OF INOSITOL, ERYTHRITOL OR SORBITOL TO ENHANCE GROWTH OF FAECALIBACTERIUM PRAUSNITZII” (SOCIÉTÉ DES PRODUITS NESTLE S.A., priority 2021, published 2024).

How the values were obtained:
F. prausnitzii [1] = assay: Model organism test of sugar alcohols as energy substrate for F. prausnitzii; assay type: cell-based, Faecalibacterium prausnitzii; details: FIGS. 4A and 4B
From the text: Using a model organism, the effect of inositol and sorbitol as energy substrate for F. prausnitzii was confirmed (FIGS. 4A and 4B), but not xylitol. Thus, all sugar alcohols cannot be assumed to have the same effect on F. prausnitzii.

F. prausnitzii [2] = assay: Growth of F. prausnitzii with added vitamins, glucose as substrate; assay type: cell-based, Faecalibacterium prausnitzii; details: FIG. 6D

Molecule | effect as energy substrate for F. prausnitzii (F. prausnitzii [1]) | growth of F. prausnitzii compared with control (F. prausnitzii [2])
OC[C@@H](O)[C@@H](O)CO [erythritol] | confirmed | –
O[C@H]1[C@H](O)[C@@H](O)[C@H](O)[C@@H](O)[C@H]1O [inositol] | confirmed | –
OC[C@@H](O)[C@@H](O)[C@H](O)[C@@H](O)CO [sorbitol] | confirmed | –
OC[C@@H](O)[C@H](O)[C@@H](O)CO [xylitol, reference compound] | not | –
Vitamin B12 | – | more than control
